In patent publication US7834053B2, “Medicinal compositions improving brain function and method for improving brain function” (priority 2002, dated 2010):
Values joined by “and” are separate entries in the source; they are usually repeats but may differ in a detail not shown here. Equal values may be shown once.

Key:
[1] = reported in the literature; cited from earlier work
[2] = test system: ddY male mice; experiment: Anti-hypoxic activity: survival time of mice in 4% oxygen / 96% nitrogen after oral administration; assay type: in vivo
Method: Test compounds A1, A2, A3, B1 and B2 were put to use after dissolution in distilled water. Test compounds C1 and C2 were put to use after suspending them in 0.5% solution of methylcellulose.
The test was carried out according to the method described in Japanese Journal of Pharmacology, Vol. 62, Page 81, 1993.
To one group (6-10 animals) of ddY male mice having an age of 4-5 weeks was orally administered a test compound dissolved in distilled water or suspended in 0.5% methyl cellulose solution. Thirty minutes after the administration, the mice were introduced into a glass container at a volume of 300 mL, and a gaseous mixture composed of 4% of oxygen and 96% of nitrogen was passed though the glass container at a flow rate of 5 L/minute. The period of time from the start of passing the gaseous mixture to the death of the mice was measured. To the control group, distilled water was administered orally.

[3] = test system: nerve growth factor; conditions: WO96/12717; cited from earlier work
[4] = test system: in-brain acetylcholine; conditions: Society for Neuroscience Abstracts 21, 947, 1995; cited from earlier work
[5] = test system: neuronal death caused by amyloid-beta-protein; conditions: Society for Neuroscience Abstracts 24, Part 1, 228, 1998; cited from earlier work
[6] = Society for Neuroscience Abstracts 21, 947, 1995; cited from earlier work
[7] = 100 mg/kg oral, alone, survival time vs control x100
[8] = 10 mg/kg oral, alone, survival time vs control x100, 30 min after administration
[9] = Compound (1) 10 mg/kg oral in combination with Compound B1 (Donepezil) 3 mg/kg
[10] = Compound (1) 10 mg/kg oral in combination with Compound B2 (Tacrine) 10 mg/kg

Cl.Nc1c2c(nc3ccccc13)CCCC2 [Compound B2, 1,2,3,4-tetrahydro-9-acridinamine hydrochloride]
anti-hypoxic activity [1]: anti-hypoxic activity is shown | Anti-hypoxic activity (%) ([2]; 10 mg/kg oral, alone, survival time vs control x100, 30 min after administration, hydrochloride): 127% and 107%

COc1cc2c(cc1OC)C(=O)C(CC1CCN(Cc3ccccc3)CC1)C2 (centres unmarked) [Compound B1, Donepezil]
Anti-hypoxic activity (%) ([2]; 3 mg/kg oral, alone, survival time vs control x100): 119% and 104%

COC1=C(OC)C(=O)C(CCCCCCCCCCO)=C(C)C1=O [Compound C1, Idebenone]
Anti-hypoxic activity (%) [2, 7]: 104% | Anti-hypoxic activity (%) ([2]; 300 mg/kg oral, alone, survival time vs control x100): 108% | Anti-hypoxic activity (%) ([2]; Compound (1) 300 mg/kg oral in combination with Compound B1 (Donepezil) 3 mg/kg): 100%

O=C(O)/C=C\C(=O)O.OC1CN(CCCOCCc2ccc3sccc3c2)C1 [Compound A3, 1-[3-(2-(1-benzothiophen-5-yl)ethoxy]-propyl]-3-azetidinol-maleate]
Anti-hypoxic activity (%) [2, 8]: 111% | Anti-hypoxic activity (%) [2, 9]: 190% | Anti-hypoxic activity (%) [2, 10]: 149%

Cl.FC(F)(F)c1cccc(C2=CCN(CCc3ccc4ccccc4c3)CC2)c1 [Compound C2, SR57746A]
Anti-hypoxic activity (%) ([2]; 30 mg/kg oral, alone, survival time vs control x100): 100% | Anti-hypoxic activity (%) [2, 7]: 123% | Anti-hypoxic activity (%) ([2]; Compound (1) 100 mg/kg oral in combination with Compound B1 (Donepezil) 3 mg/kg): 111%

CN(CCO)CCCOCCc1ccc2sccc2c1.CN(CCO)CCCOCCc1ccc2sccc2c1.O=C(O)/C=C/C(=O)O [Compound A2, 2-[[3-(2-benzo[b]thiophen-5-yl-ethoxy)propyl](methyl)amino]-1-ethanol.1/2fumarate]
Anti-hypoxic activity (%) [2, 8]: 114% | Anti-hypoxic activity (%) [2, 9]: 168% | Anti-hypoxic activity (%) [2, 10]: 172%

CCN(CC)CCOC[C@H](O)c1ccc2sccc2c1.Cl [Compound A1, (R)-1-{benzo[b]thiophen-5-yl}-2-[2-(N,N-diethylamino}ethoxy]ethanol hydrochloride]
anti-hypoxic activity [1]: has an anti-hypoxic activity | effect on the action of nerve growth factor [3]: exhibits an increasing effect | release of in-brain acetylcholine [4]: promotes the release of in-brain acetylcholine | Anti-hypoxic activity (%) [2, 8]: 137% | Anti-hypoxic activity (%) [2, 9]: 211% | Anti-hypoxic activity (%) [2, 10]: 172% | protecting effect on the neuronal death caused by amyloid-beta-protein [5]: exhibits a protecting effect | anti-amnestic activity [6]: an anti-amnestic activity
